# According to patent publication US7771935B2, “Evolving new molecular function” (President and Fellows of Harvard College, priority 2002, dated 2010):
# How the values were obtained:
# [1] = target: glutathione S-transferase (GST); conditions: read-out: Kd of binding to glutathione S-transferase (GST); cited from earlier work
# [2] = target: T1, Taq DNA polymerase (Thermus aquaticus, UniProt P19821); conditions: cited from earlier work
# [3] = target: T1, Taq DNA polymerase; assay: PCR incorporation of modified nucleotide triphosphates by Taq DNA polymerase; type: biochemical; conditions: 30 PCR cycles; pUC19 template; three natural dNTPs
# Protocol: The ability of the modified nucleotide triphosphates containing metal-binding functionality shown in FIG. 75 to be accepted by DNA polymerase enzymes was studied. Synthetic nucleotide triphosphates were purified by ion exchange and reverse-phase HPLC and were added to PCR reactions containing Taq DNA polymerase, three natural deoxynucleotide triphosphates, pUC19 template DNA, and two DNA primers. The primers were chosen to generate PCR products ranging from 50 to 200 base pairs in length. Control PCR reactions contained the four natural deoxynucleotide triphosphates and no non-natural nucleotides.
# [4] = target: Vent DNA polymerase (Thermococcus litoralis, UniProt P30317, DEL1082-1471/DEL495-1032); conditions: PCR conditions; cited from earlier work
# Sequence of Vent DNA polymerase (P30317 other isoform, or with tags, fused parts or gaps DEL495-1032/DEL1082-1471): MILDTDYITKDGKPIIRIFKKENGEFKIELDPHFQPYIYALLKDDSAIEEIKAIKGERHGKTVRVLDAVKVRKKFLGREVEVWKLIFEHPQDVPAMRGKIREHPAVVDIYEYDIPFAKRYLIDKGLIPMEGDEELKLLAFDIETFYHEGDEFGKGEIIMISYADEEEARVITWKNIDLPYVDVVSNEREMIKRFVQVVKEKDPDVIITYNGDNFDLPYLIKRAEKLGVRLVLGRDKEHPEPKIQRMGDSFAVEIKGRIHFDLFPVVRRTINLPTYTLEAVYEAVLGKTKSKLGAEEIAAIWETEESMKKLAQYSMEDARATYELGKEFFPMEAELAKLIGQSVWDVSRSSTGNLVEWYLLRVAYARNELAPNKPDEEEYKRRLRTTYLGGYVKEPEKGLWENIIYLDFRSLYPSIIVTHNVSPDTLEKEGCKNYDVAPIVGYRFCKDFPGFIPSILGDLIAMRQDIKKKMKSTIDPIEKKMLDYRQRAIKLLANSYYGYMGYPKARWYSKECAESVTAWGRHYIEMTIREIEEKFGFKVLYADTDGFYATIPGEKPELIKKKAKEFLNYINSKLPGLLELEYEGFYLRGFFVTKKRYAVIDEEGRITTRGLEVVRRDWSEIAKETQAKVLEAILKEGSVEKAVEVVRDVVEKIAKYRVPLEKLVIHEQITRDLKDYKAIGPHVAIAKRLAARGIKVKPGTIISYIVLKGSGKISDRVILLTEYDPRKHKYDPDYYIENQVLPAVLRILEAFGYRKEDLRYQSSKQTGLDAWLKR
# [5] = target: T2, chymotrypsin (Bos taurus, UniProt P00766, DEL14-15/DEL147-148); conditions: known binding of the free ligand; cited from earlier work
# T2 construct: purchased Sigma
# [6] = Bromide structural and configurational stability under the reaction conditions (MALDI-TOF, chiral HPLC); type: physicochemical; conditions: 16 hours under the reaction conditions; both enantiomers
# [7] = target: T3, papain (Carica papaya, UniProt P00784); conditions: known binding of the free ligand; cited from earlier work
# T3 construct: purchased Sigma
# T3 sequence (P00784 134-345): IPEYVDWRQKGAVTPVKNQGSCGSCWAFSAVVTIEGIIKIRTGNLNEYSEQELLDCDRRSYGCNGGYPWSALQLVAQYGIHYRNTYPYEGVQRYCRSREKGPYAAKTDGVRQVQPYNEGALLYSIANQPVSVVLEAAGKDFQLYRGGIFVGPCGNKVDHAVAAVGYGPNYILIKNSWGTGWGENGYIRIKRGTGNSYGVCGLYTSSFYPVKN
# T1 sequence (P19821 whole entry): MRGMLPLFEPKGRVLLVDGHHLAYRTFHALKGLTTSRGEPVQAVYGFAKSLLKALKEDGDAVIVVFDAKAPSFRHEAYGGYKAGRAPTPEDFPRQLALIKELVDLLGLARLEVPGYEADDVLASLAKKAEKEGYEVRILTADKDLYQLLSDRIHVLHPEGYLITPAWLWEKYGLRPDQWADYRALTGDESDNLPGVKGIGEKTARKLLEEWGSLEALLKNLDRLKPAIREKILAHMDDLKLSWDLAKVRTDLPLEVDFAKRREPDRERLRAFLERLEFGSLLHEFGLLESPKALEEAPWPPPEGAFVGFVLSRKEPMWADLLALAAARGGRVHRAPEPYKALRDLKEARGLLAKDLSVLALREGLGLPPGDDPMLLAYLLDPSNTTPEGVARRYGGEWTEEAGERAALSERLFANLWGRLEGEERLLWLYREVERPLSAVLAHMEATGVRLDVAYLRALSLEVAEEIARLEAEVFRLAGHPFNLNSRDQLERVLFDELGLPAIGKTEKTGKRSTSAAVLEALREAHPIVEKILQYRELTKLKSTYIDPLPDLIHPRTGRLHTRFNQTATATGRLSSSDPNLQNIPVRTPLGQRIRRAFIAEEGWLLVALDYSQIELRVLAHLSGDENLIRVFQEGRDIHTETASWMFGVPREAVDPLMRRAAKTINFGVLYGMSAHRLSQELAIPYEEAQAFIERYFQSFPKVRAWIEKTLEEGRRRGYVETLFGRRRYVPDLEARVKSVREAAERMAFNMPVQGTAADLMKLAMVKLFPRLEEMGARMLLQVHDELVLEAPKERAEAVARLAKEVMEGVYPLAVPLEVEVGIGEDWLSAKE
SMILES,acceptance by Taq DNA polymerase [2],incorporation by Taq DNA polymerase [3],further results
NC(=O)CNC(=O)[C@H](CS)NC(=O)CC[C@H](N)C(=O)O [glutathione amide],,,Kd [1]: ~10 µM
NCCCc1cn(C2CC(O)C(CO)O2)c2ncnc(N)c12 (stereo not drawn) [analog 11],acceptance,,
CCc1nc2c(N)ncnc2n1C1CC(O)C(COP(=O)(O)OP(=O)(O)OP(=O)(O)O)O1 (stereo not drawn) [8-modified adenosine triphosphate 33],,not accepted,
NCC=Cc1cn(C2CC(O)C(CO)O2)c2ncnc(N)c12 (stereo not drawn) [analog 12],acceptance,,
"CCCC#Cc1cn([C@H]2C[C@H](O)[C@@H](CO)O2)c(=O)[nH]c1=O [analog 1, 5-(1-pentynyl)-deoxyuridine]",,,acceptance by Vent DNA polymerase [4]: acceptance
O=C(O)CCCC[C@@H]1SC[C@@H]2NC(=O)N[C@@H]21 [biotin],,,affinity for chymotrypsin [5]: no significant affinity
"NCC#Cc1cn([C@H]2C[C@H](O)[C@@H](CO)O2)c2ncnc(N)c12 [uridine analog 13, 7-aminopropynyl-7-deazadeoxyadenosine]",acceptance,efficiently incorporated,
Cc1nc2c(N)ncnc2n1C1CC(O)C(COP(=O)(O)OP(=O)(O)OP(=O)(O)O)O1 (stereo not drawn) [8-modified adenosine triphosphate 32],,not accepted,
CNC(=O)C(C)Br (racemic) [N-methyl 2-bromopropionamide],,,configurational stability by chiral HPLC [6]: No change in retention time
CC(C)C[C@H](NC(=O)[C@@H](NC(=O)N[C@@H](Cc1ccccc1)C(=O)O)[C@@H]1CCN=C(N)N1)C(=O)N[C@H](C=O)Cc1ccccc1 [chymostatin],,,affinity for papain [7]: binds to both proteases; affinity for chymotrypsin [5]: binds to both proteases
